How the values were obtained:
[1] = system: HCT-116 colon cancer cells; experiment: Cell Glo luminescence cell growth assay, HCT-116; type: cell-based, human; conditions: NS = not statistically significant; for Effectiveness to suppress HCT-116 cell growth (cell growth inhibition): 1 uM, 24 h; for inhibition at 1 µM: Homo sapiens, HCT-116, 24 h, read-out: Effectiveness to suppress HCT-116 cell growth (cell growth inhibition)
Source text: (§1) The CellTiter-Glo® Luminescent Cell Viability Assay (Promega Corporation; Madison, WI) is a homogeneous method of determining the number of viable cells in culture based on quantitation of the ATP present, an indicator of metabolically active cells. The homogeneous assay procedure involves adding the single reagent (CellTiter-Glo® Reagent) directly to cells cultured in serum-supplemented medium. The homogeneous “add-mix-measure” format results in cell lysis and generation of a luminescent signal proportional to the amount of ATP present. The amount of ATP is directly proportional to the number of cells present in culture.
(§2) Cancer cells (3,000 cells/well) were harvested in a 96-well plate. Then, the cancer cells were treated with GS compounds and incubated for 24 hours. The MT Cell Viability Substrate, NanoLuc® Enzyme and cell culture medium was equilibrated to 37° C. The 2× RealTime-Glo™ reagent was prepared by diluting the MT Cell Viability Substrate and NanoLuc® Enzyme in 37° C. cell culture medium to a 2× concentration for each reagent. For example, 1 mL of 2× RealTime-Glo™ reagent was prepared by adding 2 μL of MT Cell Viability Substrate, 1,000×, and 2 μL of NanoLuc® Enzyme, 1,000×, to 996 μL of cell culture medium to form the 2× RealTime-Glo™ reagent. Then, an equal volume of 2× RealTime-Glo™ reagent was added to the cancer cells. The cells were kept for ˜20 minutes in the cell culture incubator and then luminescence was measured by using a plate-reading luminometer.
HCT-116 is a human colorectal cancer cell lines that has a mutation in RAS proto-oncogene.
(§3) The effects of exemplary compounds on cancer cell lines and one non-tumorigenic cell line (control) were investigated using a high throughput screening assay. More specifically, the effects of the GS compounds on cell growth was evaluated by the XTT assay for cell lines HepG2, HeLa, MCF7 ER+, MDA-MB-231, and MKN-45, and by the Cell Glo luminescence assay for cell lines MIA PaCa-2, HCT-116, MCF-10A, and PANC-1.

[2] = system: MIA PaCa-2 pancreatic cancer cells; experiment: Cell Glo luminescence cell growth assay, MIA PaCa-2; type: cell-based, human; conditions: NS = not statistically significant; for Effectiveness to suppress MIA PaCa-2 cell growth (cell growth inhibition): 50 uM, 24 h; for inhibition at 50 µM: Homo sapiens, MIA PaCa-2, 24 h, read-out: Effectiveness to suppress MIA PaCa-2 cell growth (cell growth inhibition)
Source text: as §1, §2
MIA PaCa-2 is a human pancreatic ductal adenocarcinoma cell line derived from the carcinoma of a person.
as §3

[3] = DPPH radical scavenging assay; type: biochemical; conditions: NS = not statistically significant
Protocol: The method of assessing the antioxidant capacity through the binding of the stable DPPH. radical was performed for the first time by Brand-Williams et al. in 1995 (Brand-William, W. et al., Lebensm Wiss Technol, 1995, 28: 25-30, “Use of a free radical method to evaluate antioxidant activity”). The method used herein is a variation of the original method and is one of the most characteristic and simple methods for the initial assessment of the antioxidant activity of antioxidant molecules or extracts rich in compounds with antioxidant properties.
The assessment of antioxidant capacity is based on the interaction of the tested molecules with the stable radical of 2,2-diphenyl-1-picrylydrazyl (DPPH). The DPPH. radical can be inactivated either by the addition of an electron or by a hydrogen atom. It is a stable organic nitrogen radical that is purple in color and absorbs at 517 nm. When a substance with antioxidant activity is added to the radical solution, then 2,2-diphenyl-1-picrylydrazyl (DPPH.) is reduced by the addition of a hydrogen atom (or electron) and converted to 2,2-diphenyl-1-picrylhydrazine (DPPH) which has a yellow color, resulting in reduction to the visual absorption (FIG. 2).
The effects of GS compounds on DPPH radical was evaluated as described previously (Spanou, C et al., Anticancer Research, 2007, 27: 3403-3410). Briefly, the assay was carried out in 1 mL of methanol containing 100 μM freshly made DPPH in methanol and the tested GS compound at different concentrations. The contents were vigorously mixed, incubated at room temperature in the dark for 20 minutes and the absorbance was read at 517 nm using a Hitachi U-1500 Spectrophotometer (San Jose, USA). In each experiment, the tested extract alone in methanol was used as blank and DPPH alone in methanol was used as control. […] The radical scavenging capacity (RSC) of the tested extracts was expressed as a percentage of DPPH elimination calculated according to the following equation: % RSC=[(absorbance of control−absorbance of GS compound)/absorbance of control]×100.

SMILES: C/C=C(/C=O)[C@@H](CC=O)CC(=O)OCCCCCCCCCCCCCCCC [GS26, (3S,4E)-4-formyl-3-(2-oxoethyl)-4-hexenoic acid hexadecyl ester]
- Effectiveness to suppress HCT-116 cell growth (cell growth inhibition) [1]: suppressive activity
- inhibition at 1 µM [1]: 36.3%
- Effectiveness to suppress MIA PaCa-2 cell growth (cell growth inhibition) [2]: best efficacy
- inhibition at 50 µM [2]: 70%

SMILES: C/C=C(/C=O)[C@@H](CC=O)CC(=O)OCCCSC [GS28, (3S,4E)-4-formyl-3-(2-oxoethyl)-4-hexenoic acid 3-(methylthio)propyl ester]
- Effectiveness to suppress HCT-116 cell growth (cell growth inhibition) [1]: suppressive activity
- inhibition at 1 µM [1]: 34.4%
- Effectiveness to suppress MIA PaCa-2 cell growth (cell growth inhibition) [2]: best efficacy
- inhibition at 50 µM [2]: 79%

SMILES: C/C=C(/C=O)[C@@H](CC=O)CC(=O)SCCc1ccccc1 [GS27, S-phenethyl (3S,4E)-4-formyl-3-(2-oxoethyl)hex-4-enethioate]
- Effectiveness to suppress HCT-116 cell growth (cell growth inhibition) [1]: suppressive activity
- inhibition at 1 µM [1]: 56.5%
- Effectiveness to suppress MIA PaCa-2 cell growth (cell growth inhibition) [2]: best efficacy
- inhibition at 50 µM [2]: 91%

SMILES: C/C=C1/[C@H](OC2OC(CO)C(O)C(O)C2O)OC=C(C(=O)O)[C@H]1CC(=O)OCCc1ccc(O)c(O)c1 (stereo in doubt) [GS6, (2S,4S,E)-4-(2-(3,4-dihydroxyphenethoxy)-2-oxoethyl)-3-ethylidene-2{[(2R,3S,4R,5R,6S)-3,4,5-trihydroxy-6-(hydroxymethyl)tetrahydro-2H-pyran-2-yl]oxy}-3,4dihydro-2H-pyran-5-carboxylic acid]
- DPPH Radical Scavenging Assay IC50 [3]: 5.9 μg extract/mL

SMILES: C/C=C1/[C@H](O[C@@H]2O[C@H](CO)[C@@H](O)[C@H](O)[C@H]2O)OC=C(C(=O)OC)[C@H]1CC(=O)OCCc1ccc(O)c(O)c1 [GS1, oleuropein]
- DPPH Radical Scavenging Assay IC50 [3]: 13.8 μg extract/mL

SMILES: C/C=C(/C=O)[C@@H](CC=O)CC(=O)OCCc1ccc(O)cc1 [GS19, (3S,4E)-4-formyl-3-(2-oxoethyl)-4-hexenoic acid 2-(4-hydroxyphenyl)ethyl ester, reference compound]
- inhibition at 1 µM [1]: 21.6%
- inhibition at 50 µM [2]: 30%

SMILES: C/C=C(/C=O)[C@@H](CC=O)CC(=O)OCCc1ccc(O)c(O)c1 [GS17, (3S,4E)-4-formyl-3-(2-oxoethyl)-4-hexenoic acid 2-(3,4-dihydroxyphenyl)ethyl ester, reference compound]
- DPPH Radical Scavenging Assay IC50 [3]: 11.5 μg extract/mL

SMILES: C/C=C(/C=O)[C@@H](CC=O)CC(=O)OCCOc1ccccc1 [GS24, (3S,4E)-4-formyl-3-(2-oxoethyl)-4-hexenoic acid 2-phenoxyethyl ester]
- inhibition at 50 µM [2]: 28%
